We go through 23 compounds from patent US20240360151A1 (SANOFI, priority 2023, published 2024).

Some results are limits rather than exact numbers.

In one test the target is T1, NLRP3 inflammasome (Homo sapiens, UniProt Q96P20).
T1 construct: endogenous in cells; host or cells: THP-1 monocytic cells
Nature of the test: IL-1β secretion assay (NLRP3 IC50) in LPS-primed, nigericin-activated THP-1 cells, HTRF. The settings on record: monocytic THP-1 cells; LPS 10 ng/mL 3 h priming, then compound + nigericin 10 μM 2 h; relative IC50, 10 concentrations, geometric mean. The class given is cell-based. The gist of the method: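 IL-1β in supernatant read by HTRF after 2 h co-incubation of compound (0.1% DMSO, 10 concentrations, 1:3 series) with nigericin at 10 μM final, following 3 h LPS (10 ng/mL) priming of THP-1 monocytes at 37° C. Inhibition normalised to unactivated and no-compound controls; geometric-mean relative IC50 from 4-parameter logistic model.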
On the technique in general: In TR-FRET formats the signal depends on donor and acceptor labels being close together.

For test [1], the system named is NF-kB pathway (TNF-α secretion by THP-1 cells). In words: TNF-α secretion assay in LPS-stimulated THP-1 cells, Lumit immunoassay. The class given is cell-based, human. As to conditions: Homo sapiens, THP-1, 3 h, monocytic THP-1 cells, LPS 10 ng/mL, relative IC50, 10 concentrations, geometric mean. The gist of the method: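 TNF-α release was quantified directly in the cell plate by Lumit immunoassay after a 3-h, 10 ng/mL LPS trigger of compound-treated THP-1 cells (RPMI, 5% FBS). Percent inhibition versus no-compound and unstimulated controls fed a 4-parameter logistic fit over 10 concentrations, giving geometric-mean relative IC50.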

T1 sequence (Q96P20 whole entry): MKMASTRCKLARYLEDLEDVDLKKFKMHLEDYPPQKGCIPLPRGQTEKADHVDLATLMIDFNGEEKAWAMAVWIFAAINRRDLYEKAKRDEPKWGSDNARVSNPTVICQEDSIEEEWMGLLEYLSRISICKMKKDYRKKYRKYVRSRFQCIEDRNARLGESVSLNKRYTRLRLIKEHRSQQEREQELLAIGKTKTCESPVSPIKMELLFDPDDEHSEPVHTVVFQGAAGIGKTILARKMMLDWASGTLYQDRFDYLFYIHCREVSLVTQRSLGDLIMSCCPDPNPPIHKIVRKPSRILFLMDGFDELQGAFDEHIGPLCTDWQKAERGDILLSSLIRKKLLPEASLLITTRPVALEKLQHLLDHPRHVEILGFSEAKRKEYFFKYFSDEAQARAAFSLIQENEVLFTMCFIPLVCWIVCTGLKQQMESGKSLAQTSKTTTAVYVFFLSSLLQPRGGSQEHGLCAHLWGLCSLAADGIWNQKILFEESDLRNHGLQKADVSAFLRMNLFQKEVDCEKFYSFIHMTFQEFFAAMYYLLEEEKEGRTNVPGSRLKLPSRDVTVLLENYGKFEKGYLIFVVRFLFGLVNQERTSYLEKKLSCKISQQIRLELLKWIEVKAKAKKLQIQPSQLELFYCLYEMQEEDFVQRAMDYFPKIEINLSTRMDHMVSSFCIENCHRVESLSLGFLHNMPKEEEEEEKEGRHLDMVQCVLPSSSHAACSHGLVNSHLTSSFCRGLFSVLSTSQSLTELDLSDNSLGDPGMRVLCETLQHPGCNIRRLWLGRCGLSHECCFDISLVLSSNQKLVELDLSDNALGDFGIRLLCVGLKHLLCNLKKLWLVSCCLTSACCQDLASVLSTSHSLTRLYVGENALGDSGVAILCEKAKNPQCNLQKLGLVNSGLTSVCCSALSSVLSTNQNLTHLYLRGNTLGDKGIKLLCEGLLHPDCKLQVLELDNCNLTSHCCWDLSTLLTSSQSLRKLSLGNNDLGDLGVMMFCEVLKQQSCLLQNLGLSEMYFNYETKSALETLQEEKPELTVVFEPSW

As a reminder, the IC50 is the midpoint of a concentration-inhibition curve. With `Cc1cc(C(F)(F)F)cc(O)c1-c1ccc(N2CCOC(C(C)(C)O)C2)nn1` (stereo not shown) [Example 26, 2-[6-[2-(1-hydroxy-1-methyl-ethyl)morpholin-4-yl]pyridazin-3-yl]-3-methyl-5-(trifluoromethyl)phenol], the IC50 at NLRP3 inflammasome is 352 nM; in test [1], greater than 10000 nM.
Take `Cc1cc(C(F)(F)F)cc(O)c1-c1ccc(N2CCOC(CN(C)C)C2)nn1` (single isomer, unassigned) [Example 60, 2-[6-[-2-[(dimethylamino)methyl]morpholin-4-yl]pyridazin-3-yl]-3-methyl-5-(trifluoromethyl)phenol]: the IC50 was 386 nM on NLRP3 inflammasome and greater than 10000 nM in test [1].
Consider `Cc1cc(Cl)cc(O)c1-c1ccc(N2CCO[C@@H]3CCN(C)C[C@@H]32)nn1` (single isomer, unassigned) [Example 321], for which the IC50 was 1 nM on NLRP3 inflammasome and greater than 10000 nM in test [1].
For `Cc1cc(C(F)(F)F)cc(O)c1-c1ccc(N2C[C@H](O)CC2=O)nn1` [Example 132, (4R)-4-hydroxy-1-[6-[2-hydroxy-6-methyl-4-(trifluoromethyl)phenyl]pyridazin-3-yl]pyrrolidin-2-one] the same measures were 362 nM and greater than 10000 nM.
For `Cc1cc(C)c(-c2cc(CO)c(N3CCO[C@H](CO)C3)nn2)c(O)c1` [Example 187, 2-[5-(hydroxymethyl)-6-[(2S)-2-(hydroxymethyl)morpholin-4-yl]pyridazin-3-yl]-3,5-dimethyl-phenol] the same measures were 66 nM and greater than 10000 nM.
For `Cc1cc(Cl)cc(O)c1-c1nnc(N2CCO[C@H](CO)C2)cc1C(F)F` [Example 249, 5-chloro-2-[4-(difluoromethyl)-6-[(2S)-2-(hydroxymethyl)morpholin-4-yl]pyridazin-3-yl]-3-methyl-phenol], the IC50 at NLRP3 inflammasome is 151 nM; in test [1], greater than 10000 nM.
For `Cc1cc(N2CCO[C@@H]3CCN(C)C[C@@H]32)nnc1-c1ccc(C(F)(F)F)cc1O` [Example 430, 2-[6-[(4aS,8aR)-6-methyl-3,4a,5,7,8,8a-hexahydro-2H-pyrido[4,3-b][1,4]oxazin-4-yl]-4-methyl-pyridazin-3-yl]-5-(trifluoromethyl)phenol] the same measures were less than 0.3 nM and greater than 10000 nM.
For `Cc1cc(C)c(-c2ccc(N3CCC(CO)C3=O)nn2)c(O)c1` (stereo not shown) [Example 122, 1-[6-(2-hydroxy-4,6-dimethyl-phenyl)pyridazin-3-yl]-3-(hydroxymethyl) pyrrolidin-2-one] the same measures were 149 nM and greater than 10000 nM.
In the case of `Oc1cc(Cl)cc(Cl)c1-c1ccc(N2CC3(CC(O)C3)C2)nn1` [Example 46, 2-[6-(2,4-dichloro-6-hydroxy-phenyl)pyridazin-3-yl]-2-azaspiro[3.3]heptan-6-ol], the IC50 at NLRP3 inflammasome was 389 nM; in test [1], greater than 10000 nM.
For `Cc1cc(O)c(-c2ccc(N3CCO[C@H](CO)C3)nn2)c(F)c1` [Example 45, 3-fluoro-2-[6-[(2S)-2-(hydroxymethyl)morpholin-4-yl]pyridazin-3-yl]-5-methyl-phenol], the IC50 at NLRP3 inflammasome was 281 nM; in test [1] it was greater than 10000 nM.
`Cc1cc(N2CCO[C@H](CO)C2)nnc1-c1c(C)cc(Cl)cc1O` [Example 149, 5-chloro-2-[6-[(2S)-2-(hydroxymethyl)morpholin-4-yl]-4-methyl-pyridazin-3-yl]-3-methyl-phenol]: the IC50 is 52 nM on NLRP3 inflammasome and greater than 10000 nM in test [1].
For `Cc1cc(C(F)F)cc(O)c1-c1ccc(N2CCO[C@H](CO)C2)nn1` [Example 134, 5-(difluoromethyl)-2-[6-[(2S)-2-(hydroxymethyl)morpholin-4-yl]pyridazin-3-yl]-3-methyl-phenol] the same measures were 71 nM and greater than 10000 nM.
`Cc1cc(C)c(-c2ccc(N3CCO[C@H]4CCN(C5CCC5)C[C@H]43)nn2)c(O)c1` (single isomer, unassigned) [Example 10]: the IC50 on NLRP3 inflammasome was 178 nM; in test [1], greater than 10000 nM.
With `Cc1cc(C(F)(F)F)cc(O)c1-c1ccc(N2CCO[C@H]3CCN(C4CCC4)C[C@H]32)nn1` (single isomer, unassigned) [Example 12], the 50% inhibitory concentration (IC50) at NLRP3 inflammasome was 171 nM; in test [1] it was greater than 10000 nM.
For `Cc1cc(N2CCO[C@@H]3CCN(C)C[C@@H]32)nnc1-c1ccc(Cl)cc1O` [Example 379, 2-[6-[(4aS,8aR)-6-methyl-3,4a,5,7,8,8a-hexahydro-2H-pyrido[4,3-b][1,4]oxazin-4-yl]-4-methyl-pyridazin-3-yl]-5-chloro-phenol] the same measures were 1 nM and greater than 10000 nM.
For `Cc1cc(C(F)(F)F)cc(O)c1-c1ccc(N2CC[C@@H]3CCN(C)C[C@@H]32)nn1` [Example 392, 2-[6-[(3aS,7aR)-6-methyl-3,3a,4,5,7,7a-hexahydro-2H-pyrrolo[2,3-c]pyridin-1-yl]pyridazin-3-yl]-3-methyl-5-(trifluoromethyl)phenol] the same measures were 1 nM and greater than 10000 nM.
For `Cc1cc(C)c(-c2ccc(N3CCNC4(CCOC4)C3)nn2)c(O)c1` (stereo not shown) [Example 196, 3,5-dimethyl-2-[6-(2-oxa-6,9-diazaspiro[4.5]decan-9-yl)pyridazin-3-yl]phenol] the same measures were 452 nM and greater than 10000 nM.
For `Cc1cc(C)c(-c2ccc(N3CCCc4ccccc43)nn2)c(O)c1` [Example 272, 2-[6-(3,4-dihydro-2H-quinolin-1-yl)pyridazin-3-yl]-3,5-dimethyl-phenol], the IC50 at NLRP3 inflammasome was determined as 2340 nM; in test [1], 6580 nM.
For `Cc1cc(C)c(-c2ccc(N3CC[C@@H](CO)C3=O)nn2)c(O)c1` (single isomer, unassigned) [Example 140] the same measures were 210 nM and greater than 10000 nM.
For `Cc1cc(C)c(-c2cc(C(F)F)c(N3CCO[C@H](CO)C3)nn2)c(O)c1` [Example 170, 2-[5-(difluoromethyl)-6-[(2S)-2-(hydroxymethyl)morpholin-4-yl]pyridazin-3-yl]-3,5-dimethyl-phenol] the same measures were 12 nM and greater than 10000 nM.
For `Cc1c(-c2ccc(Cl)cc2O)nnc(N2CCO[C@H](CO)C2)c1C` [Example 81, 5-chloro-2-[6-[(2S)-2-(hydroxymethyl)morpholin-4-yl]-4,5-dimethyl-pyridazin-3-yl]phenol] the same measures were 164 nM and 9800 nM.
With `CCN1CC[C@H]2CCN(c3ccc(-c4c(C)cc(C(F)(F)F)cc4O)nn3)[C@H]2C1` (stereo in doubt) [Example 406, 2-[6-[(3aS,7aR)-6-ethyl-3,3a,4,5,7,7a-hexahydro-2H-pyrrolo[2,3-c]pyridin-1-yl]pyridazin-3-yl]-3-methyl-5-(trifluoromethyl)phenol], the results for the IC50 (on NLRP3 inflammasome; in test [1]) were 78 nM and greater than 10000 nM, respectively.
For `CC(=O)N1CC[C@@H]2OCCN(c3ccc(-c4c(C)cc(C(F)(F)F)cc4O)nn3)[C@@H]2C1` (stereo in doubt) [Example 398, 1-[(4aR,8aS)-4-[6-[2-hydroxy-6-methyl-4-(trifluoromethyl)phenyl]pyridazin-3-yl]-3,4a,5,7,8,8a-hexahydro-2H-pyrido[4,3-b][1,4]oxazin-6-yl]ethanone] the same measures were 17 nM and greater than 10000 nM.
